# Assay results from US7115619B2, “N8, N13 -disubstituted quino[4,3,2-kl]acridinium salts as therapeutic agents” (Cancer Research Technology Limited, priority 2000, dated 2006).
# Structures can show the parent of a compound that is named as a salt.
# How the values were obtained:
# [1] = Growth inhibition, sulforhodamine B (SRB) assay, A2780; assay type: cell-based; conditions: human, A2780 ovarian carcinoma cells, 96 hr incubation, read-out: Cytotoxicity IC50 A2780
# Method: (§1) Growth inhibition was measured in the following cells lines using the sulforhodamine B (SRB) assay: • A2780: human ovarian carcinoma cell line. • CH1: human ovarian carcinoma cell line. • SKOV-3: human ovarian carcinoma cell line. • A431: human vulval carcinoma cells (short telomeres). • GM847: carcinoma cell line immortalised by ALT pathway.
# (§2) Briefly, between 3000 and 6000 cells were seeded into the wells of 96-well microtiter plates and allowed to attach overnight. Test compounds (salts) were dissolved at 500 μM in water and immediately added to wells in quadruplicate at final concentrations of 0.05, 0.25, 1, 5 and 25 μM. Following an incubation period of 96 hr, remaining cells were fixed with ice-cold 10% w/v trichloroacetic acid (30 min) and stained with 0.4% SRB in 1% v/v acetic acid (15 min). Mean absorbance at 540 nm for each drug concentration was expressed as a percentage of the control untreated well absorbance, and IC50 values (concentration required to inhibit cell growth by 50%) were determined for each agent.
# [2] = target: T1, telomerase (extracts from A2780 human ovarian carcinoma cells) (Homo sapiens, UniProt O14746); experiment: Modified telomeric repeat amplification protocol (TRAP) assay, cell-free; assay type: biochemical; conditions: A2780 cell extract, agent up to 50 μM, 20 min, read-out: telIC50
# T1 construct: extracts from exponentially growing A2780 human ovarian carcinoma cells
# Method: The ability of compounds to inhibit telomerase in a cell-free assay was assessed with a modified TRAP assay using extracts from exponentially growing A2780 human ovarian carcinoma cells. The TRAP assay was performed in 2 steps: (a) telomerase-mediated extension of the forward primer (TS: 5′-AATCCGTCGAGCAGAGTT, Oswel Ltd., Southampton, UK) contained in a 40 μL reaction mix comprising TRAP buffer (20 mM Tris-HCl (pH 8.3), 68 mM KCl, 1.5 mM MgCl2, 1 mM EGTA, 0.05% v/v Tween 20), 0.05 μg bovine serum albumin, 50 μM of each deoxynucleotide triphosphate, 0.1 μg TS primer, and 3 μCi of [α-^32P]dCTP (Amersham plc, UK). Protein (0.04 μg) was then incubated with the reaction mix±agent (acid addition and quaternary dimethiodide salts) at final concentrations of up to 50 μM for 20 min at […]. A lysis buffer (no protein) control, heat-inactivated protein control, and 50% protein (0.02 μg) control were included in each assay; and (b) while heating at […]. in a PCR block of a thermal cycler (Hybaid, UK) for 5 min to inactivate telomerase activity, 0.1 μg of reverse CX primer (3′-[…]-5′) and 2 Units of Taq DNA polymerase (“red hot”, Advanced Biotechnologies) were added. A 3-step PCR was then performed: 94° C. for 30 s, 50° C. for 30 s, and […]. for 1 min for 31 cycles. Telomerase-extended PCR products in the presence or absence of compounds were then determined either by electrophoretic separation using 8% w/w acrylamide denaturing gels and analysis by phosphorimaging or autoradiography, or by harvesting on Whatman filters (25 mm glass microfibre) and analysis by liquid scintillation counting.
# [3] = Growth inhibition, sulforhodamine B (SRB) assay, SKOV-3; assay type: cell-based; conditions: human, SKOV-3 ovarian carcinoma cells, 96 hr incubation, read-out: Cytotoxicity IC50 SKOV-3
# Method: as §1, §2
# [4] = Growth inhibition, sulforhodamine B (SRB) assay, CH1; assay type: cell-based; conditions: human, CH1 ovarian carcinoma cells, 96 hr incubation, read-out: Cytotoxicity IC50 CH1
# Method: as §1, §2
# [5] = Growth inhibition, sulforhodamine B (SRB) assay, A431; assay type: cell-based; conditions: human, A431 vulval carcinoma cells (short telomeres), 96 hr incubation, read-out: Cytotoxicity IC50 A431
# Method: as §2, with “Growth inhibition was measured in the following cells lines using the sulforhodamine B (SRB) assay: • A2780: human ovarian carcinoma cell line. • CH1: human ovarian carcinoma cell line. • SKOV-3: human ovarian carcinoma cell line. • A431: human vulval carcinoma cells (short telomeres). • GM847: carcinoma cell line immortalised by ALT pathway. Briefly,” for “Briefly,”
# [6] = Growth inhibition, sulforhodamine B (SRB) assay, GM847; assay type: cell-based; conditions: human, GM847 cells (immortalised by ALT pathway), 96 hr incubation, read-out: Cytotoxicity IC50 GM847
# Method: as §2, with “Growth inhibition was measured in the following cells lines using the sulforhodamine B (SRB) assay: • A2780: human ovarian carcinoma cell line. • CH1: human ovarian carcinoma cell line. • SKOV-3: human ovarian carcinoma cell line. • A431: human vulval carcinoma cells (short telomeres). • GM847: carcinoma cell line immortalised by ALT pathway. Briefly,” for “Briefly,”
# T1 sequence (O14746 whole entry): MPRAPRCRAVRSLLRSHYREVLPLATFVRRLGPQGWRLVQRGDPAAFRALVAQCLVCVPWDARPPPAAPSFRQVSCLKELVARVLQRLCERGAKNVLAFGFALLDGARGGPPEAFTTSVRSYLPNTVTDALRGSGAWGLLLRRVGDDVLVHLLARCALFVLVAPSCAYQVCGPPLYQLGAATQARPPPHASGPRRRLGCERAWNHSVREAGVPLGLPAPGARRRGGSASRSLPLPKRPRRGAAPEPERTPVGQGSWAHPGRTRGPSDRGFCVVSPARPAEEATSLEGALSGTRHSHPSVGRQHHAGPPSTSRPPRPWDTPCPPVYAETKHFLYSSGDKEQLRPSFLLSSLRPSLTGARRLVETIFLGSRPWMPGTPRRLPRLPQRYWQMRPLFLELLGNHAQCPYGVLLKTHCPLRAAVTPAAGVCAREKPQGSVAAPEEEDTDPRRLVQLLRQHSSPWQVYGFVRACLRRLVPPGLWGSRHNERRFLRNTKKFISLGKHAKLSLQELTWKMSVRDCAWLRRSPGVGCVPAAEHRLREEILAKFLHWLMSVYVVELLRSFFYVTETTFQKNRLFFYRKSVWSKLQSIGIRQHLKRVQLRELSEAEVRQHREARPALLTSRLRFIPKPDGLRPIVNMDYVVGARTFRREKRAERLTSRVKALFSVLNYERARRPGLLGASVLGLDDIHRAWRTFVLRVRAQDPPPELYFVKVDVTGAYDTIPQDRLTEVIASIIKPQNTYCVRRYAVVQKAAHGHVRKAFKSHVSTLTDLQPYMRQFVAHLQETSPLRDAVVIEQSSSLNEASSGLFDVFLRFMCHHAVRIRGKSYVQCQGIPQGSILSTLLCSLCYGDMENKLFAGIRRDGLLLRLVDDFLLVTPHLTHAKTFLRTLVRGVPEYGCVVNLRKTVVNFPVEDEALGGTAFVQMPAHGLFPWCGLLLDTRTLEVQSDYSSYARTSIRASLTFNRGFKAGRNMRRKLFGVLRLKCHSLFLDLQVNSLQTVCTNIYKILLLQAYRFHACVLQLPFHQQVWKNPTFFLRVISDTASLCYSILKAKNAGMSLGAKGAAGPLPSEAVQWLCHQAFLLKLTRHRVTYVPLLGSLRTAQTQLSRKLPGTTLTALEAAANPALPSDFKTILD
smiles,measurement,setting,value
"CN1c2ccccc2-c2c3c1cccc3c1cc(Cl)ccc1[n+]2C (as salt: iodide) [RHPS06, 3-Chloro-8,13-dimethyl-8H-quino[4,3,2-kl]acridinium iodide]",melting point,,225 to 227 °C
"COC(=O)/C=C/c1ccc2c(c1)c1cccc3c1c([n+]2C)-c1ccccc1N3C (as salt: iodide) [RHPS15, (E)-3-(8,13-Dimethyl-8H-quino[4,3,2-kl]acridinium-3-yl)-acrylic acid methyl ester iodide]",melting point,,200 to 202 °C
"Cc1cc2c3c([n+](C)c4ccc(Cl)cc4c3c1)-c1cc(Cl)ccc1N2C (as salt: sulfate) [RHPS02, 3,11-Dichloro-6,8,13-trimethyl-8H-quino[4,3,2-kl]acridinium methylsulfate]",melting point,,250 to 252 °C
"Cc1cc2c3c([n+](C)c4ccccc4c3c1)-c1ccccc1N2C (as salt: sulphate) [RHPS01, 6,8,13-Trimethyl-8H-quino[4,3,2-kl]acridinium methyl sulphate]",melting point,,190 to 192 °C
"Cc1ccc2c(c1)-c1c3c(cc(C)cc3c3cc(C)ccc3[n+]1C)N2C (as salt: sulphate) [RHPS03, 3,6,8,11,13-Pentamethyl-8H-quino[4,3,2-kl]acridinium methyl sulphate]",melting point,,240 to 242 °C
"Cc1cc2c3c([n+](C)c4ccccc4c3c1)-c1ccccc1N2C [RHPS01, 6,8,13-Trimethyl-8H-quino[4,3,2-kl]acridinium methyl sulphate]",IC50 at 96 h,[1],0.9 µM
same,IC50,[2],0.74 µM
same,IC50 at 96 h,[3],3.6 µM
same,IC50 at 96 h,[4],0.37 µM
"Cc1cc2c3c([n+](C)c4ccc(Cl)cc4c3c1)-c1cc(Cl)ccc1N2C [RHPS02, 3,11-Dichloro-6,8,13-trimethyl-8H-quino[4,3,2-kl]acridinium methylsulfate]",IC50 at 96 h,[1],1.3 µM
same,IC50,[2],0.24 µM
same,IC50 at 96 h,[3],9.3 µM
same,IC50 at 96 h,[4],1.4 µM
"Cc1ccc2c(c1)-c1c3c(cc(C)cc3c3cc(C)ccc3[n+]1C)N2C [RHPS03, 3,6,8,11,13-Pentamethyl-8H-quino[4,3,2-kl]acridinium methyl sulphate]",IC50 at 96 h,[1],0.33 µM
same,IC50,[2],0.18 µM
same,IC50 at 96 h,[3],0.75 µM
same,IC50 at 96 h,[4],0.29 µM
"Cc1cc2c3c([n+](C)c4ccc(F)cc4c3c1)-c1cc(F)ccc1N2C [RHPS04, 3,11-Difluoro-6,8,13-trimethyl-8H-quino[4,3,2-kl]acridinium methyl sulphate]",IC50 at 96 h,[1],1.1 µM
same,IC50,[2],0.31 µM
same,IC50 at 96 h,[3],23 µM
same,IC50 at 96 h,[4],0.5 µM
"CN1c2ccccc2-c2c3c1cccc3c1ccccc1[n+]2C [RHPS05, 8,13-Dimethyl-8H-quino[4,3,2-kl]acridinium iodide]",IC50 at 96 h,[1],1.6 µM
same,IC50,[2],1.55 µM
same,IC50 at 96 h,[3],18 µM
same,IC50 at 96 h,[4],1.1 µM
"CN1c2ccccc2-c2c3c1cccc3c1cc(Cl)ccc1[n+]2C [RHPS06, 3-Chloro-8,13-dimethyl-8H-quino[4,3,2-kl]acridinium iodide]",IC50 at 96 h,[1],1.1 µM
same,IC50,[2],0.26 µM
same,IC50 at 96 h,[3],12.5 µM
same,IC50 at 96 h,[4],0.5 µM
"CN1c2cc(Cl)ccc2-c2c3c1cccc3c1cc(Cl)ccc1[n+]2C [RHPS07, 3,10-Dichloro-8,13-dimethyl-8H-quino[4,3,2-kl]acridinium iodide]",IC50 at 96 h,[1],14.5 µM
same,IC50,[2],0.94 µM
same,IC50 at 96 h,[3],> 25 µM
same,IC50 at 96 h,[4],3.8 µM
"COc1cc2c3c([n+](C)c4ccccc4c3c1)-c1ccccc1N2C [RHPS08, 8,13-Dimethyl-6-methoxy-8H-quino[4,3,2-kl]acridinium iodide]",IC50 at 96 h,[1],0.62 µM
same,IC50,[2],0.47 µM
same,IC50 at 96 h,[3],3.6 µM
same,IC50 at 96 h,[4],0.13 µM
"COC(=O)CCc1ccc2c(c1)c1cccc3c1c([n+]2C)-c1ccccc1N3C [RHPS09, 3-(8,13-Dimethyl-8H-quino[4,3,2-kl]acridinium-3-yl)-propionic acid methyl ester iodide]",IC50 at 96 h,[1],> 25 µM
same,IC50,[2],3.02 µM
same,IC50 at 96 h,[3],> 25 µM
same,IC50 at 96 h,[4],11.5 µM
"COc1cc2c3c([n+](C)c4ccc(Cl)cc4c3c1)-c1ccccc1N2C [RHPS10, 3-Chloro-8,13-dimethyl-6-methoxy-8H-quino[4,3,2-kl]acridinium iodide]",IC50,[2],0.24 µM
same,IC50 at 96 h,[5],3.2 µM
same,IC50 at 96 h,[6],0.8 µM
same,IC50 at 96 h,[3],6.3 µM
same,IC50 at 96 h,[4],1.1 µM
"CC(=O)Oc1cc2c3c([n+](C)c4ccccc4c3c1)-c1ccccc1N2C [RHPS11, 6-Acetoxy-8,13-dimethyl-8H-quino[4,3,2-kl]acridinium iodide]",IC50,[2],1.7 µM
same,IC50 at 96 h,[5],1.7 µM
same,IC50 at 96 h,[6],17.7 µM
same,IC50 at 96 h,[3],3.5 µM
same,IC50 at 96 h,[4],1.6 µM
"COc1cc2c3c([n+](C)c4ccccc4c3c1)-c1ccc(Cl)cc1N2C [RHPS12, 10-Chloro-8,13-dimethyl-6-methoxy-8H-quino[4,3,2-kl]acridinium iodide]",IC50,[2],0.28 µM
same,IC50 at 96 h,[5],1 µM
same,IC50 at 96 h,[6],0.4 µM
same,IC50 at 96 h,[3],10 µM
same,IC50 at 96 h,[4],0.3 µM
"COC(=O)Oc1cc2c3c([n+](C)c4ccccc4c3c1)-c1ccccc1N2C [RHPS13, 6-Methoxycarbonyloxy-8,13-dimethyl-8H-quino[4,3,2-kl]acridinium iodide]",IC50,[2],0.57 µM
same,IC50 at 96 h,[5],0.4 µM
same,IC50 at 96 h,[6],0.5 µM
same,IC50 at 96 h,[3],1.5 µM
same,IC50 at 96 h,[4],0.2 µM
"COC(=O)/C=C/c1ccc2c(c1)c1cccc3c1c([n+]2C)-c1ccccc1N3C [RHPS15, (E)-3-(8,13-Dimethyl-8H-quino[4,3,2-kl]acridinium-3-yl)-acrylic acid methyl ester iodide]",IC50,[2],0.19 µM
same,IC50 at 96 h,[5],3.2 µM
same,IC50 at 96 h,[6],4.5 µM
same,IC50 at 96 h,[3],19 µM
same,IC50 at 96 h,[4],2.2 µM
"CN1c2ccccc2-c2c3c1cccc3c1cc(/C=C/C(=O)N3CCOCC3)ccc1[n+]2C [RHPS16, 8,13-Dimethyl-(E)-3-(3-morpholin-4-yl-3-oxo-propenyl)-8H-quino[4,3,2-kl]acridinium iodide]",IC50,[2],0.37 µM
same,IC50 at 96 h,[5],12.5 µM
same,IC50 at 96 h,[6],> 25 µM
same,IC50 at 96 h,[3],> 25 µM
same,IC50 at 96 h,[4],17.8 µM
